Source: PMC8429728, “TNK1 is a ubiquitin-binding and 14-3-3-regulated kinase that can be targeted to block tumor growth” (Nature Communications, 2021)
Like-named read-outs stand apart in the source and are kept apart here.

What was measured:
Assay in all cases: biochemical
Design in all cases: Reaction Biology 371-kinase panel at Km ATP, per cent enzyme activity relative to DMSO, single dose in duplicate
DAPK1 = DAPK1 (Homo sapiens, UniProt P53355); settings: duplicate measurements, Km ATP
Outline: (§1)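 First, kinases from a 371-member panel were exposed in vitro to 300 nM inhibitor. Next, % enzyme activity versus DMSO was computed. Finally, IC50s were derived by sigmoidal dose-response fitting with variable slope and a zero bottom constraint.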

STK33 = STK33 (Homo sapiens, UniProt Q9BYT3); settings: duplicate measurements, Km ATP
Outline: as §1

FGFR4 = FGFR4 (Homo sapiens, UniProt P22455); settings: duplicate measurements, Km ATP
Outline: as §1

CDK2/cyclin A = CDK2/cyclin A (Homo sapiens, UniProt P24941); settings: duplicate measurements, Km ATP
Outline: as §1

MLK2/MAP3K10 = MLK2/MAP3K10 (Homo sapiens, UniProt Q02779); settings: duplicate measurements, Km ATP
Outline: as §1

CLK2 = CLK2 (Homo sapiens, UniProt P49760); settings: duplicate measurements, Km ATP
Outline: as §1

STK39/STLK3 = STK39/STLK3 (Homo sapiens, UniProt Q9UEW8); settings: duplicate measurements, Km ATP
Outline: as §1

TSSK3/STK22C = TSSK3/STK22C (Homo sapiens, UniProt Q96PN8); settings: duplicate measurements, Km ATP
Outline: as §1

TIE2/TEK = TIE2/TEK (Homo sapiens, UniProt Q02763); settings: duplicate measurements, Km ATP
Outline: as §1

MARK2/PAR-1Ba = MARK2/PAR-1Ba (Homo sapiens, UniProt Q7KZI7); settings: duplicate measurements, Km ATP
Outline: as §1

LYN = LYN (Homo sapiens, UniProt P07948); settings: duplicate measurements, Km ATP
Outline: as §1

PDGFRb = PDGFRb (Homo sapiens, UniProt P09619); settings: duplicate measurements, Km ATP
Outline: as §1

PIM2 = PIM2 (Homo sapiens, UniProt Q9P1W9); settings: duplicate measurements, Km ATP
Outline: as §1

ZAP70 = ZAP70 (Homo sapiens, UniProt P43403); settings: duplicate measurements, Km ATP
Outline: as §1

STK32C/YANK3 = STK32C/YANK3 (Homo sapiens, UniProt Q86UX6); settings: duplicate measurements, Km ATP
Outline: as §1

MLK4 = target: T1, MLK4 (Homo sapiens, UniProt Q5TCX8); settings: duplicate measurements, Km ATP; read-out: % Enzyme Activity (relative to DMSO controls) / TP-0005801 (0.3µM) / Data 1
T1 construct: gene MAP3K21
Outline: as §1

PRKX = PRKX (Homo sapiens, UniProt P51817); settings: duplicate measurements, Km ATP
Outline: as §1

NEK1 = NEK1 (Homo sapiens, UniProt Q96PY6); settings: duplicate measurements, Km ATP
Outline: as §1

CDK8/cyclin C = CDK8/cyclin C (Homo sapiens, UniProt P49336); settings: duplicate measurements, Km ATP
Outline: as §1

ITK = ITK (Homo sapiens, UniProt Q08881); settings: duplicate measurements, Km ATP
Outline: as §1

[1] = read-out: % Enzyme Activity (relative to DMSO controls) / TP-0005801 (0.3µM) / Data 1
[2] = read-out: % Enzyme Activity (relative to DMSO controls) / TP-0005801 (0.3µM) / Data 2

Chain of MLK2/MAP3K10 (Q02779 whole entry): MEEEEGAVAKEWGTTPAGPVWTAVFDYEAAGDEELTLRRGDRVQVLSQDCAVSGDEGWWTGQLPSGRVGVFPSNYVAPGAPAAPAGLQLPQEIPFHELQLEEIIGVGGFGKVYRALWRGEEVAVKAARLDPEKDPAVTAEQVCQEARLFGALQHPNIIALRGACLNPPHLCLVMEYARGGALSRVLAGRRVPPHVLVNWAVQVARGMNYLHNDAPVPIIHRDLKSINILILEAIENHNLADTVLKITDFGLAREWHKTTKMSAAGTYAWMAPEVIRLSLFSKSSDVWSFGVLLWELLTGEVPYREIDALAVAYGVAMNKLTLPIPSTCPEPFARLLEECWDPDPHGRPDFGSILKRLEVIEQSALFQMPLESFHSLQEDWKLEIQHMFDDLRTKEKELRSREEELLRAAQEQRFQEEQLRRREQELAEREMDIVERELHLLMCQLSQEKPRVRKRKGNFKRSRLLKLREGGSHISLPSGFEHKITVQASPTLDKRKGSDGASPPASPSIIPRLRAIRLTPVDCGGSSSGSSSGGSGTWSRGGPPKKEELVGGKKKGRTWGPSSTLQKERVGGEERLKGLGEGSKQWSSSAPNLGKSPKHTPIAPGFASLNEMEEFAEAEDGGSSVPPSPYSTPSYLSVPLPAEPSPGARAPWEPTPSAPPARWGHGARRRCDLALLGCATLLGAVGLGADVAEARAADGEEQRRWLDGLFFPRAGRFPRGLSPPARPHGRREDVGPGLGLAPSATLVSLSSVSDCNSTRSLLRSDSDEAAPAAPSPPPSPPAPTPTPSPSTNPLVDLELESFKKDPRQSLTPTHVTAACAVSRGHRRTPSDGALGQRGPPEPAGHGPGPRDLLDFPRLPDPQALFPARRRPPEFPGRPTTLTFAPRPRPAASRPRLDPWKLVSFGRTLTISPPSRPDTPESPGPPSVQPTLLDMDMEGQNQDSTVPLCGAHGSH
Chain of FGFR4 (P22455 whole entry): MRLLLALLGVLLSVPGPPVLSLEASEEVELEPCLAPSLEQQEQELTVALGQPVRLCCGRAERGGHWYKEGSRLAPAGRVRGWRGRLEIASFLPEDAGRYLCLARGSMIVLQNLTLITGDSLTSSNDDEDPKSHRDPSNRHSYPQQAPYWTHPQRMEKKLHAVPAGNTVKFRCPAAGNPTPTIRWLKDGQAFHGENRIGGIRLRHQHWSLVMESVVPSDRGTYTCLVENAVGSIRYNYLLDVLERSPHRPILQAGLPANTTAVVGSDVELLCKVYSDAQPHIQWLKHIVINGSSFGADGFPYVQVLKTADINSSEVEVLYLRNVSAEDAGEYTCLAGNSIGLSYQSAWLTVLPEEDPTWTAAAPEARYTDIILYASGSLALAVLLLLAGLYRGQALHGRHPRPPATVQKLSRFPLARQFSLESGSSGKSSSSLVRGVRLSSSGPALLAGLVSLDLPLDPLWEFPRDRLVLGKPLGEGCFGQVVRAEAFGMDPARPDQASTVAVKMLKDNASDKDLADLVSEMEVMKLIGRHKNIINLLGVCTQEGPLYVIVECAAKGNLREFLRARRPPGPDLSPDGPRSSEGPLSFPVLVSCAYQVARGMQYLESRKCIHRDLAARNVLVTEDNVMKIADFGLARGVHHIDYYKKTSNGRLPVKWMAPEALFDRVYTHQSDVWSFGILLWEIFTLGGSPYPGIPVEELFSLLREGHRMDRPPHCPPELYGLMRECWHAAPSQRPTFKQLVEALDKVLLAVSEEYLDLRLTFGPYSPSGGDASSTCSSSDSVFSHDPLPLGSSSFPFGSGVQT
Chain of PDGFRb (P09619 whole entry): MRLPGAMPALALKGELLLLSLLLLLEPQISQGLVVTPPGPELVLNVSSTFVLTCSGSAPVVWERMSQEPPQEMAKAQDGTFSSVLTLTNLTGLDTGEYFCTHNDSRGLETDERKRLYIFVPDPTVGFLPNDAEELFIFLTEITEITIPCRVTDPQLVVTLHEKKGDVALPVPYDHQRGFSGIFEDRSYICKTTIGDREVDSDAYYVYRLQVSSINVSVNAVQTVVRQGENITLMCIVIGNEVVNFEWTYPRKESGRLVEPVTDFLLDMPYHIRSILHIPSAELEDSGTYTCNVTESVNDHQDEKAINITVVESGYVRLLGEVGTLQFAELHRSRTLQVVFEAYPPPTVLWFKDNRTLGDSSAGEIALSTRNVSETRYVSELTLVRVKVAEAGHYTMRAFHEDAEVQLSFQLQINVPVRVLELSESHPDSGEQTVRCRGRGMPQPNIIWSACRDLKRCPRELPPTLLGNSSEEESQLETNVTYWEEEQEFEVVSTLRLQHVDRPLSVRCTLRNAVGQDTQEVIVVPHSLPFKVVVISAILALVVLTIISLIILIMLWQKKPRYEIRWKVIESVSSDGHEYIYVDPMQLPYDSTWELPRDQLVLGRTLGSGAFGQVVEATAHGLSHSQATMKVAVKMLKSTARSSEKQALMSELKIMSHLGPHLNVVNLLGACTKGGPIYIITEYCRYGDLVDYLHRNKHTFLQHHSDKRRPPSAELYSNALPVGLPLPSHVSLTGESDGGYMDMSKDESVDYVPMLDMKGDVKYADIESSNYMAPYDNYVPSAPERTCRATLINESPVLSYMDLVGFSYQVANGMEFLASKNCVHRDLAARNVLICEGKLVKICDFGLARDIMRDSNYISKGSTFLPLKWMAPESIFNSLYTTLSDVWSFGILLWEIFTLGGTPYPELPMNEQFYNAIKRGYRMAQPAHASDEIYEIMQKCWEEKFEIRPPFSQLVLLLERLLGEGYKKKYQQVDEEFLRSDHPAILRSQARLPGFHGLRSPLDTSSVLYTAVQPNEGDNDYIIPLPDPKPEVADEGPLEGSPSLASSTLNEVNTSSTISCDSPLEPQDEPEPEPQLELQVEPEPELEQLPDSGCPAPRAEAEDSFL
Chain of TSSK3/STK22C (Q96PN8 whole entry): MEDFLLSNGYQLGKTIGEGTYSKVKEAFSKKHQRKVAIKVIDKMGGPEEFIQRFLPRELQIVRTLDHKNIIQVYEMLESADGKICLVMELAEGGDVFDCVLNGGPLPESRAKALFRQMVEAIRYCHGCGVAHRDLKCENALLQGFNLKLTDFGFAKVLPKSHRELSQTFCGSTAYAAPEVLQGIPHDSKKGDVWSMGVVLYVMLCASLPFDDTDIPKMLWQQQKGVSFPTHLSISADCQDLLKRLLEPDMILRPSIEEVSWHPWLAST
Chain of NEK1 (Q96PY6 whole entry): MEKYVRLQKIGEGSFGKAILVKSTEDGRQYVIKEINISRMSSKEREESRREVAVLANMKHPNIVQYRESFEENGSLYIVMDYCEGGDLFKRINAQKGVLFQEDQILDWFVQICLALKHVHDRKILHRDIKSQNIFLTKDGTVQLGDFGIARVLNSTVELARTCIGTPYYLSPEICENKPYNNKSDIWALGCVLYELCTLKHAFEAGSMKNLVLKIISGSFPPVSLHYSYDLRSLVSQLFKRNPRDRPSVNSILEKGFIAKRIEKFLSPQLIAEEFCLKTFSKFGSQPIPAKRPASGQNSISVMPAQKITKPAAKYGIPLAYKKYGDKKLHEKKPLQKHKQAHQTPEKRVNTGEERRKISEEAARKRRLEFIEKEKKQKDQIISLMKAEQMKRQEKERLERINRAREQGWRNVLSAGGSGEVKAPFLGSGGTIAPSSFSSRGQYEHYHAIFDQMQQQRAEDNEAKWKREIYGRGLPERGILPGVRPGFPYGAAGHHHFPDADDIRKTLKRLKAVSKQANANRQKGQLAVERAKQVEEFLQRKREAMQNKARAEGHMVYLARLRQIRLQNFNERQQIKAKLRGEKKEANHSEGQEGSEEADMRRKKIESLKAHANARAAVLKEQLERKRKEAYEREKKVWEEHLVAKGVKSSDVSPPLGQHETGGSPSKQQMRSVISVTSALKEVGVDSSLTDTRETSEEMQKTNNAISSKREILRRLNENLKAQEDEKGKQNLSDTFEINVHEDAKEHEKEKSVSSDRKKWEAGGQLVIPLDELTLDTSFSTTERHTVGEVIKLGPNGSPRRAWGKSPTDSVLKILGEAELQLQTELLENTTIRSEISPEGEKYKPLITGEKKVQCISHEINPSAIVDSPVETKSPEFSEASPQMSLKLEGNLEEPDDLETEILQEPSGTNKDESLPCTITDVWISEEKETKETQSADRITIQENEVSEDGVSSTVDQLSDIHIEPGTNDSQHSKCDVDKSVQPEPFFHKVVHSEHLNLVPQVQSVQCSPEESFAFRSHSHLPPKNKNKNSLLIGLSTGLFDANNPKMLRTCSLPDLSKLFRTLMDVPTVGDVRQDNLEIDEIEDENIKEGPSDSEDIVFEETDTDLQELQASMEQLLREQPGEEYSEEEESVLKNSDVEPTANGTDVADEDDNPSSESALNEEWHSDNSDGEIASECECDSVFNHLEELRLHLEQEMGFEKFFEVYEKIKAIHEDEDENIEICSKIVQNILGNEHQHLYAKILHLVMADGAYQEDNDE
Chain of LYN (P07948 whole entry): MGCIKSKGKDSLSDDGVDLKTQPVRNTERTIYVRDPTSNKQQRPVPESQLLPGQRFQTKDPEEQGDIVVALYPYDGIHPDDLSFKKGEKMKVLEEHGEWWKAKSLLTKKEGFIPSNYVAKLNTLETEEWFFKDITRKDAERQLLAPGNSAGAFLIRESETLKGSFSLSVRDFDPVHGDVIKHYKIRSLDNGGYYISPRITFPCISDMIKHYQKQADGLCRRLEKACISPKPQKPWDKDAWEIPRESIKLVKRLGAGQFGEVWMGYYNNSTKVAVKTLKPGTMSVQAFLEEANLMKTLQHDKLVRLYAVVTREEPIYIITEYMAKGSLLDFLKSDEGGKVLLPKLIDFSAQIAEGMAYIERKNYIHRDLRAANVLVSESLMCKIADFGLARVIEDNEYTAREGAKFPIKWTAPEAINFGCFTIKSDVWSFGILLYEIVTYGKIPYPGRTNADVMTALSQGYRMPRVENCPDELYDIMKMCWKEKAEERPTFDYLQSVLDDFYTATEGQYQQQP

COc1cc(N2CCN(C)CC2)c(C)cc1Nc1ncc(Br)c(Nc2cccnc2N(C)C)n1 [TP-5801]
remaining activity at 0.3 µM (DAPK1; [1]): 102% | remaining activity at 0.3 µM (DAPK1; [2]): 101% | remaining activity at 0.3 µM (STK33; [1]): 32.4% | remaining activity at 0.3 µM (STK33; [2]): 31.5% | remaining activity at 0.3 µM (FGFR4; [1]): 79.9% | remaining activity at 0.3 µM (FGFR4; [2]): 77.6% | remaining activity at 0.3 µM (CDK2/cyclin A; [1]): 90.8% | remaining activity at 0.3 µM (CDK2/cyclin A; [2]): 87.6% | remaining activity at 0.3 µM (MLK2/MAP3K10; [1]): 87% | remaining activity at 0.3 µM (MLK2/MAP3K10; [2]): 85.9% | remaining activity at 0.3 µM (CLK2; [1]): 69.8% | remaining activity at 0.3 µM (CLK2; [2]): 68.6% | remaining activity at 0.3 µM (STK39/STLK3; [1]): 61.2% | remaining activity at 0.3 µM (STK39/STLK3; [2]): 61.1% | remaining activity at 0.3 µM (TSSK3/STK22C; [1]): 97.1% | remaining activity at 0.3 µM (TSSK3/STK22C; [2]): 94.6% | remaining activity at 0.3 µM (TIE2/TEK; [1]): 83.6% | remaining activity at 0.3 µM (TIE2/TEK; [2]): 80.7% | remaining activity at 0.3 µM (MARK2/PAR-1Ba; [1]): 93.2% | remaining activity at 0.3 µM (MARK2/PAR-1Ba; [2]): 92.1% | remaining activity at 0.3 µM (LYN; [1]): 70.1% | remaining activity at 0.3 µM (LYN; [2]): 69.8% | remaining activity at 0.3 µM (PDGFRb; [1]): 64.4% | remaining activity at 0.3 µM (PDGFRb; [2]): 64% | remaining activity at 0.3 µM (PIM2; [1]): 116% | remaining activity at 0.3 µM (PIM2; [2]): 110% | remaining activity at 0.3 µM (ZAP70; [1]): 95.5% | remaining activity at 0.3 µM (ZAP70; [2]): 91.3% | remaining activity at 0.3 µM (STK32C/YANK3; [1]): 90.2% | remaining activity at 0.3 µM (STK32C/YANK3; [2]): 83.2% | remaining activity at 0.3 µM (MLK4): 106% | remaining activity at 0.3 µM (PRKX; [1]): 93.7% | remaining activity at 0.3 µM (PRKX; [2]): 92.5% | remaining activity at 0.3 µM (NEK1; [1]): 105% | remaining activity at 0.3 µM (NEK1; [2]): 104% | remaining activity at 0.3 µM (CDK8/cyclin C; [1]): 31.9% | remaining activity at 0.3 µM (CDK8/cyclin C; [2]): 31.6% | remaining activity at 0.3 µM (ITK; [1]): 107% | remaining activity at 0.3 µM (ITK; [2]): 103%
